Counter-ions that a name gives are not always drawn.
System: not listed separately
Experiment: Assessment of in vivo MCHR activity: body weight of rats with a choice of chow and high fat/high sugar diet
Design: species or system rat
Conditions: male Sprague Dawley rats, 30 mg/kg p.o. daily day 0 through day 4, dosed as prodrug (Examples 57, 68, 66)
Protocol: Male SPRAGUE DAWLEY® (CD, Charles River Breeding Laboratory) rats weighing approximately 240 grams were place in individual plastic cages with ALPHADRI® bedding. The room was maintained at 72° F. and 50% humidity, and a 12/12 light dark cycle with lights out at 1600 hours. The rats were conditioned for 5 days prior to the start of the study to having a choice of foods. A normal chow (HARLAN TEKLAD®, 2018) that contains 18% protein, 5% fat and 73% carbohydrate and a high fat high sugar diet (Research Diets (D2327)) that contains 20% protein, 40% fat and 40% carbohydrate where the carbohydrate is entirely sucrose and the fat is soybean and coconut oil. […] Body weight and consumption of both kinds of food as well as water intake were measured daily. Water was available ad lib throughout the study. Food consumption is presented as daily caloric consumption which is the sum of grams of chow multiplied by the Kcal per gram (3.5) plus grams of high fat high sugar multiplied by Kcal per gram (4.59).
Baseline body weight was measured prior to drug treatment on day 0 of the study. Baseline food consumption was the average of the 3 days prior to the first drug treatment. Drug was administered daily p.o. at 2.0 ml/kg at 1500 hours beginning on day 0 and continuing daily through day 4 as a suspension in 0.5% methyl cellulose, 0.1% Tween 80 in water at 3.0, 10 and 30 mg/kg p.o. All data were evaluated using ANOVA and Fishers PLSD statistics.

Compound	Weight Reduction versus Vehicle [%]
COc1cc(N2Cc3cc(-c4ccc(Cl)cc4)sc3C2=O)ccc1OCC(C)(C)O [Example 1, 2-(4-Chlorophenyl)-5-(4-(2-hydroxy-2-methylpropoxy)-3-methoxyphenyl)-4H-thieno[3,2-c]pyrrol-6(5H)-one]	3.9
COc1cc(N2Cc3cc(-c4ccc(Cl)cn4)sc3C2=O)ccc1OC[C@H](O)CS(C)(=O)=O [Example 31]	3.2
COc1cc(N2Cc3cc(-c4ncc(Cl)cn4)sc3C2=O)ccc1OCC(C)(C)O [Example 33]	4.8

Biological target: T1, mutated (E4Q, A5T) hMCHR1 receptor (Homo sapiens, UniProt Q99705, A5T/E4Q)
T1 construct: expressed in transfected cells; host or cells: HEK-293 (stably transfected), membrane preparation
T1 sequence (Q99705 whole entry E4Q/A5T): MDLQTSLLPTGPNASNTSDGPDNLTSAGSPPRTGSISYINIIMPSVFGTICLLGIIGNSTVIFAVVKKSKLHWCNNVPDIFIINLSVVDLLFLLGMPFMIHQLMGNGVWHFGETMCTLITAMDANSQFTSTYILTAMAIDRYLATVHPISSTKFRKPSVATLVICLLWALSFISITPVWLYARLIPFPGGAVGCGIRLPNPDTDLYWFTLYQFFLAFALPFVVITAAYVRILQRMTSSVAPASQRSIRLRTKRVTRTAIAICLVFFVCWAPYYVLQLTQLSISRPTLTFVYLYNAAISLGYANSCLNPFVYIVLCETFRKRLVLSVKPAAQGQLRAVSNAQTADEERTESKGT
Experiment: Radioligand binding assay for assessment of MCHR1 activity
Conditions: membranes from stably transfected HEK-293 cells; competition with [Phe13,[125I]Tyr19]-MCH
Protocol: Radioligand Binding Assay for Assessment of MCHR1 Activity
Membranes from stably transfected HEK-293 cells expressing a mutated (E4Q, A5T) hMCHR1 receptor were prepared by dounce homogenization and differential centrifugation. Binding experiments were carried out with 0.5-1.0 ug of membrane protein incubated in a total of 0.2 ml in 25 mM HEPES (pH 7.4) with 10 mM MgCl2, 2 mM EGTA, and 0.1% BSA (Binding Buffer) for 90 min. For competition binding assays, reactions were carried out in the presence of with 0.06-0.1 nM [Phe^13, [^125I]Tyr^19]-MCH and increasing concentrations of unlabeled test molecules. Reactions were terminated by rapid vacuum filtration over 96 well-GFC UNIFILTER® plates pre-coated with 0.075 ml binding buffer containing 1% BSA, and washed 3 times with 0.4 ml of Phospho-buffered Saline (pH 7.4) containing 0.01% TX-100. Filters were dried, 0.05 ml microscint 20 was added to each well and radioactivity was subsequently quantified by scintillation counting on a TOPCOUNT® microplate scintillation counter (Packard). Inhibitory constants were determined by nonlinear least squares analysis using a four parameter logistic equation.

Compound	Ki [nM]
5-(4-(2-Hydroxy-2-methylpropoxy)-3-methoxyphenyl)-2-(6-methoxypyridin-3-yl)-4H-thieno[3,2-c]pyrrol-6(5H)-one, trifluoroacetic acid salt [Example 41]	800
CN(C)[C@@H]1CCN(c2ccc(N3Cc4cc(-c5ccc(Cl)cc5)sc4C3=O)cn2)C1 [Example 21, (R)-2-(4-Chlorophenyl)-5-(6-(3-(dimethylamino)pyrrolidin-1-yl)pyridin-3-yl)-4H-thieno[3,2-c]pyrrol-6(5H)-one]	0.2
COc1cc(N2Cc3cc(-c4ccc(Cl)cn4)sc3C2=O)ccc1OCC(O)C(F)(F)F (stereo not drawn) [Example 27]	2.5
COc1cc(N2Cc3cc(-c4ncc(Cl)cn4)sc3C2=O)ccc1OCC(C)(C)O [Example 33]	17
COc1cc(N2Cc3cc(-c4ncc(Cl)cn4)sc3C2=O)ccc1N1CCC(O)CC1 [Example 39]	33.6
COc1cc(N2Cc3cc(-c4ccccn4)sc3C2=O)ccc1OCC(C)(C)O [Example 49, 5-(4-(2-Hydroxy-2-methylpropoxy)-3-methoxyphenyl)-2-(pyridin-2-yl)-4H-thieno[2,3-c]pyrrol-6(5H)-one, trifluoroacetic acid salt]	107
COc1cc(N2Cc3nc(-c4ccc(Cl)cc4)sc3C2=O)ccc1OCC(C)(C)O [Example 52, 2-(4-Chlorophenyl)-5-(4-(2-hydroxy-2-methylpropoxy)-3-methoxyphenyl)-4H-pyrrolo[3,4-d]thiazol-6(5H)-one]	68
COc1cc(N2Cc3nc(-c4ccc(Cl)cc4)oc3C2=O)ccc1OCC(C)(C)O [Example 53, 2-(4-Chlorophenyl)-5-(4-(2-hydroxy-2-methylpropoxy)-3-methoxyphenyl)-4H-pyrrolo[3,4-d]oxazol-6(5H)-one]	248
COc1cc(N2Cc3cc(-c4ccc(Cl)cc4)oc3C2=O)ccc1OCC(C)(C)O [Example 54, 2-(4-Chlorophenyl)-5-(4-(2-hydroxy-2-methylpropoxy)-3-methoxyphenyl)-4H-furo[3,2-c]pyrrol-6(5H)-one]	13.3
COc1cc(N2Cc3cc(-c4ncc(Cl)cn4)sc3C2=O)ccc1OCC(C)(C)OC(=O)CN [Example 68]	17.6

Results, then the compound that gave them:

Ki [nM]	Compound
1.9	COc1cc(N2Cc3cc(-c4ccc(Cl)cc4)sc3C2=O)ccc1OCC(C)(C)O [Example 1, 2-(4-Chlorophenyl)-5-(4-(2-hydroxy-2-methylpropoxy)-3-methoxyphenyl)-4H-thieno[3,2-c]pyrrol-6(5H)-one]
2.5	COc1cc(N2Cc3cc(-c4ccc(Cl)cc4)sc3C2=O)ccc1OC[C@H](O)C1CC1 [Example 2]
0.2	COc1cc(N2Cc3cc(-c4ccc(Cl)cc4)sc3C2=O)ccc1OCCN1CCCC1 [Example 3]
30	COc1cc(N2Cc3cc(-c4ccc(Cl)cc4)sc3C2=O)ccc1O [Example 6]
0.3	CN[C@H]1CCN(c2ccc(N3Cc4cc(-c5ccc(Cl)cc5)sc4C3=O)cn2)C1 [Example 10]
0.6	COc1cc(N2Cc3cc(-c4ccc(Cl)cc4)sc3C2=O)ccc1OC[C@H](O)CS(C)(=O)=O [Example 15]
1290	COc1cc(N2Cc3cc(-c4ccncc4)sc3C2=O)ccc1OCC(C)(C)O [Example 43]
21.6	COc1cc(N2Cc3cc(-c4ccc(Cl)nc4)sc3C2=O)ccc1OCC(C)(C)O [Example 44]
